# Several values for one entry are separate records, joined by “and”; a condition that tells them apart may be missing. Equal entries are not always repeated. Where two headings read alike, the source gives them in different places.
# Experiments:
# [1] = target: C. elegans (N2) complex I (NADH:ubiquinone oxidoreductase) (Caenorhabditis elegans, UniProt P24887+Q93873+Q94360); test: biochemical; assay type: biochemical; settings: for percent (%) in vitro complex I activity relative to solvent control: mitochondria
# Sequence of C. elegans (N2) complex I (NADH:ubiquinone oxidoreductase) (Q94360 17-199): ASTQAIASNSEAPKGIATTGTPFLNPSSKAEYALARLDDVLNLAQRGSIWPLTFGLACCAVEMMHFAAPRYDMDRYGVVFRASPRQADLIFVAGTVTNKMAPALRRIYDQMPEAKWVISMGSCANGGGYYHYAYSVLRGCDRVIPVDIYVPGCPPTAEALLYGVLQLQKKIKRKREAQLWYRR
# Sequence of C. elegans (N2) complex I (NADH:ubiquinone oxidoreductase) (P24887 whole entry): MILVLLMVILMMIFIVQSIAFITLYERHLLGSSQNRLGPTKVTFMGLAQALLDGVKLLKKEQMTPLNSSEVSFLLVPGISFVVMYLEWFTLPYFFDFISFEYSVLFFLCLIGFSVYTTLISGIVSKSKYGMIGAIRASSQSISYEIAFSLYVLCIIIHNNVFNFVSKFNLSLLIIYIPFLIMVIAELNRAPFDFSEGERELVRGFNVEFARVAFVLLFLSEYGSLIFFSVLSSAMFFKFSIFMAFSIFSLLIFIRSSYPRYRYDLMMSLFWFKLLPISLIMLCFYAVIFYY
# Sequence of C. elegans (N2) complex I (NADH:ubiquinone oxidoreductase) (Q93873 31-482): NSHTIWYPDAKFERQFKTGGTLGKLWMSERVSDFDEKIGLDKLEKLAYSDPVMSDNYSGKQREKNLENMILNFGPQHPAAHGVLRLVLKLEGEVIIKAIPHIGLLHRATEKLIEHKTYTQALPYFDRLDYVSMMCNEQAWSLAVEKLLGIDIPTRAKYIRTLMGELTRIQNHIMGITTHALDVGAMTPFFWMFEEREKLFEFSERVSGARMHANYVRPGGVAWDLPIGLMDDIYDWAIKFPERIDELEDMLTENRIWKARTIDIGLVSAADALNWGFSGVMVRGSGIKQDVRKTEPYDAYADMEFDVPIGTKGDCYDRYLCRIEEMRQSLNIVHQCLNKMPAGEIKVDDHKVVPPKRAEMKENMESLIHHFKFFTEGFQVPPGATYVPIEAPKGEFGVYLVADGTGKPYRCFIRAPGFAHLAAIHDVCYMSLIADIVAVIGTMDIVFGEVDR
# Procedure: Mitochondria were isolated from the following free-living nematode strains: C. elegans—N2, CB3474, ECA882, ECA917, ECA1075, ECA1080; C. briggsae—AF16; P. pacificus—PS312; and P. hermaphrodita—B178. With the exception of the P. hermaphrodita strain B178, adult worms of each strain were grown in bulk through liquid culture to obtain mitochondria in sufficient quantities. Due to poor growth in liquid media, mixed stage populations of P. hermaphrodita were washed off and collected from NGM plates seeded with OP50. The isolation of mitochondria from all free-living nematode strains followed the protocol previously outlined in Burns et al.[24]. In brief, a 1 L saturated culture of E. coli HB101 was concentrated 20-fold in 50 mL complete S-medium. ~500,000 L1 worms synchronized from an embryo preparation performed the day prior were added to the S-media/HB101 suspension and grown to adulthood over the course of 3.5 days at 20 °C with shaking at 165 rpm. Following growth, worms were collected in 10 ×15 mL conical tubes and washed 7 times in M9 buffer. Worm suspensions were then combined into a single 15 mL conical tube and diluted to a final volume of 15 mL with M9 buffer. 1 mL aliquots of worm suspension were then distributed to 15 × 1.5 mL screw-cap microcentrifuge tubes and were pelleted at 500 g for 1 min. Excess M9 was aspirated without disturbing the worm pellet. 600 μL ice-cold isolate buffer A (250 mM sucrose, 10 mM Tris (pH 7.5), 1 mM EDTA, 1 mM PMSF (freshly prepared)) and 300 μL cold glass beads were then added to each tube. Tubes were incubated on ice for 10 min, and the worms were then lysed by bead beating (6 x 30 s, with 1 min cooling intervals). Tubes containing worm lysate were centrifuged at 1,000 g for 10 min at 4 °C and the supernatant was transferred to 15 new microcentrifuge tubes on ice. The tubes were centrifuged a second time at 1,000 g for 10 min at 4 °C and the supernatant was once again transferred to 15 new microcentrifuge tubes on ice. These tubes were then centrifuged at 16,000 g for 10 min at 4 °C. The resulting mitochondrial pellet was washed twice by re-suspension in 300 μL of ice-cold isolate buffer B (250 mM sucrose, 10 mM Tris (pH 7.5), 1 mM EDTA). Following the final wash, isolation buffer was aspirated from each tube and the pellets were flash-frozen in ethanol/dry ice and stored at −80 °C until needed.
# (§1) The enzymatic activities of individual ETC complexes (I-IV) were assessed spectrophotometrically in isolated mitochondria using a Varioskan LUX Multimode plate reader (ThermoFisher Scientific). Mitochondrial pellets previously isolated were thawed on ice and resuspended in ice-cold isolation buffer (250 mM sucrose, 10 mM Tris (pH 7.5), 1 mM EDTA). The BCA assay (Walker, 1994) was used to quantify the protein concentration of mitochondria suspensions; solutions were diluted to a concentration of 0.2 mg/mL for use in all assays. For the complex I assay, mitochondria pellets were freeze-thawed on ice three times to increase enzyme accessibility. […] 20 μL mitochondria suspension was then added/mixed with a pipette to initiate the reaction. Immediately following the addition of mitochondria, absorbance was measured (complex I and II: 600 nm; complex III and IV: 550 nm) in 30 s intervals over 15 min. Enzymatic activity was determined in each reaction by plotting absorbance versus time and calculating the slope of the curve during the initial linear phase of the reaction. […] Percent activity of each complex was calculated by dividing the enzyme-specific activity of each well by the enzyme-specific activity of the corresponding solvent controls.
# (§2) Chemical solutions were prepared in complex I assay buffer composed of 25 mM KPi buffer (pH 7.5), 3 mg/mL bovine serum albumin (BSA), 80 μM NADH, 60 μM decylubiquinone, 160 μM DCIP, 2 μM antimycin A and 2 mM KCN.
# For preliminary screens of hit compounds, compounds were screened at 100 μM; data are the average of at least three biological replicates.
# L1 wild-type C. elegans = settings: for Screen "Hit" / Relative Motility: 50 μM; for Relative Motility: relative to DMSO controls, single biological replicate
# [2] = target: B. taurus (heart) complex I (Bos taurus, UniProt P03887+P17694+P42026); test: biochemical; assay type: biochemical; settings: heart mitochondria; read-out: B. taurus Complex I IC50
# Sequence of B. taurus (heart) complex I (P03887 whole entry): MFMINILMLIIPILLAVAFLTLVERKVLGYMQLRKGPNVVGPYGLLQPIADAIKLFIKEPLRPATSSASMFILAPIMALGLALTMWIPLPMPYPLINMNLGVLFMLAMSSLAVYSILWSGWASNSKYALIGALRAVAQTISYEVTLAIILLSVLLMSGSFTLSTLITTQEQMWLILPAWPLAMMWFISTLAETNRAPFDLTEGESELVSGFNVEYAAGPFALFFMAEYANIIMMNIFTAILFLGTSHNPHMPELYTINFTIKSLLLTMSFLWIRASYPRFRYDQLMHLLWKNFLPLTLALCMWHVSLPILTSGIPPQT
# Sequence of B. taurus (heart) complex I (P17694 34-463): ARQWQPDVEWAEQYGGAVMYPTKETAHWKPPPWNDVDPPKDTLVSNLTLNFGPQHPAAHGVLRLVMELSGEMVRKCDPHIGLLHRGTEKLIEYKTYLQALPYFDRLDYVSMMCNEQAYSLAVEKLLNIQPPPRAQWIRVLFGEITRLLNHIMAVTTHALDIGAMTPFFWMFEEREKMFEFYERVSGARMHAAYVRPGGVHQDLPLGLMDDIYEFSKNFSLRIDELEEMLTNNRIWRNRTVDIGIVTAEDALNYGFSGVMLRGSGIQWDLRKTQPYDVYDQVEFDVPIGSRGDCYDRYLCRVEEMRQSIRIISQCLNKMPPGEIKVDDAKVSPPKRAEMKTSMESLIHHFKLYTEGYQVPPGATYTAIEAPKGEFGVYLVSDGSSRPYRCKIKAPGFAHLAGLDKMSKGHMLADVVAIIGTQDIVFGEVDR
# Sequence of B. taurus (heart) complex I (P42026 38-216): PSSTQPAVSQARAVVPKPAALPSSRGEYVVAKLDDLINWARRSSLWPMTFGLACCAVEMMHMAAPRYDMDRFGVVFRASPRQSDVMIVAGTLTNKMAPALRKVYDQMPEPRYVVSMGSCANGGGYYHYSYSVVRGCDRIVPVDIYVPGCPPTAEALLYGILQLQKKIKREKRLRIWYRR
# Procedure: Six 8–10-week-old C57Bl/6 female mice (Charles River) were freshly dissected, and their livers and hearts collected into separate 1.5 mL microcentrifuge tubes. Organs were flash-frozen in liquid nitrogen and stored at −80 °C prior to use. The heart of a freshly slaughtered adult cow was obtained from a local abattoir (Peel Sausage Inc.), chopped into ~1-inch cubes and collected into 50 mL falcon tubes. Falcon tubes were flash-frozen in a container of dry ice and stored at −80 °C prior to use. Isolation of mitochondria from all mammalian tissue was carried out following the protocol described above. However, due to size, the initial homogenization of tissue was performed by 15 strokes in a dounce homogenizer (mouse heart) or with several 5 s pulses in small Nutribullet blender (cow heart). All mouse protocols for mouse care and dissection were reviewed and approved by the University of Toronto Animal Care Committee, in accordance with the Canadian Council on Animal Care.
# as §1, §2
# For preliminary screens of hit compounds, compounds were screened at 100 μM; data are the average of at least three biological replicates. The complex I and II activity assays were used for additional dose-response experiments. […] For dose responses of benzimidazole analogs, data represent the average of two biological replicates. For all other dose-responses, data represent the average of at least three biological replicates.
# [3] = read-out: percent (%) in vitro complex I activity relative to solvent control
# [4] = active (hit) or inactive (non) at 50 μM in C. elegans assay of RQ-dependent metabolism
# [5] = KCN survival assay, hit = relative motility below 0.25
# [6] = worm motility 3 hours after the removal of KCN (endpoint)
# [7] = hit = relative motility below 0.25 3 hours after the removal of KCN
# [8] = hit = relative motility below 0.25 3 hours after removal of KCN
# [9] = worm motility 3 hours after removal of KCN
# [10] = active or inactive at 50 μM in C. elegans assay of RQ-dependent metabolism
smiles,measurement,setting,value
CCCSc1ccc2nc(NC(=O)OC)[nH]c2c1 [Albendazole],percent (%) in vitro complex I activity relative to solvent control,[1]; 0.125 µM,118.853% and 109.086% and 106.962%
same,percent (%) in vitro complex I activity relative to solvent control,[1]; 0.313 µM,114.037% and 108.086% and 98.922%
same,percent (%) in vitro complex I activity relative to solvent control,[1]; 0.625 µM,95.184% and 91.388% and 110.521%
same,percent (%) in vitro complex I activity relative to solvent control,[1]; 1.5 µM,96.241% and 104.509% and 111.883%
same,percent (%) in vitro complex I activity relative to solvent control,[1]; 3 µM,99.535% and 109.848% and 112.347%
same,percent (%) in vitro complex I activity relative to solvent control,[1]; 15 µM,97.910% and 114.555% and 112.953%
same,percent (%) in vitro complex I activity relative to solvent control,[1]; 37.5 µM,89.237% and 107.533% and 106.445%
same,percent (%) in vitro complex I activity relative to solvent control,[1]; 75 µM,100.906% and 79.462% and 105.930% and 106.268%
same,remaining activity at 0.125 µM,[1]; [3],103%
same,remaining activity at 0.313 µM,[1]; [3],104%
same,remaining activity at 0.625 µM,[1]; [3],102%
same,remaining activity at 1.5 µM,[1]; [3],109%
same,remaining activity at 3 µM,[1]; [3],106%
same,remaining activity at 15 µM,[1]; [3],106%
same,remaining activity at 37.5 µM,[1]; [3],105%
same,remaining activity at […],[1]; [3],108%
FC(OC(F)(F)F)c1nc2ccc(Cl)cc2[nH]1 (stereo not shown) [Compound 5119407],Hit,L1 wild-type C. elegans; [4],non
Cc1nc2cc(Cl)ccc2n1-c1ccccc1 [Compound 5119819],"Screen ""Hit""",L1 wild-type C. elegans; [5],Y (hits were identified as compounds that reduced relative motility below 0.25 (75% reduction))
same,Relative Motility,L1 wild-type C. elegans; [6],0.230
CCn1c(C)nc2cc(-c3ccccc3)ccc21 [Compound 5160815],"Screen ""Hit""",L1 wild-type C. elegans; [7],Y (hits were identified as compounds that reduced relative motility below 0.25 (75% reduction))
same,Relative Motility,L1 wild-type C. elegans; [6],0.085
Cc1ccc2[nH]c(-c3ccccc3N)nc2c1 [Compound 5534607],Hit,L1 wild-type C. elegans; [4],non
CC(C)(C)c1ccc(Cn2c(N)nc3ccccc32)cc1 [Compound 5564334],"Screen ""Hit""",L1 wild-type C. elegans; [5],Y (hits were identified as compounds that reduced relative motility below 0.25 (75% reduction))
same,Relative Motility,L1 wild-type C. elegans; [6],0.130
COc1ccc(CSc2nc3ccccc3[nH]2)cc1 [Compound 5568705],"Screen ""Hit""",L1 wild-type C. elegans; [8],Y (hits were identified as compounds that reduced relative motility below 0.25 (75% reduction))
same,Relative Motility,L1 wild-type C. elegans; [9],0.100
Fc1cccc(F)c1CSc1nc2ccccc2[nH]1 [Compound 5616951],"Screen ""Hit""",L1 wild-type C. elegans; [8],Y (hits were identified as compounds that reduced relative motility below 0.25 (75% reduction))
same,Relative Motility,L1 wild-type C. elegans; [9],0.130
COc1ccc2c(c1)nc(SCc1ccccc1)n2C [Compound 5649512],"Screen ""Hit""",L1 wild-type C. elegans; [8],Y (hits were identified as compounds that reduced relative motility below 0.25 (75% reduction))
same,Relative Motility,L1 wild-type C. elegans; [9],0.190
Cc1ccccc1Cn1cnc2ccccc21 [Compound 5656207],Hit,L1 wild-type C. elegans; [10],non
Cn1c(/C=C/c2ccc(Cl)cc2)nc2ccccc21 [Compound 5663561],"Screen ""Hit""",L1 wild-type C. elegans; [5],Y (hits were identified as compounds that reduced relative motility below 0.25 (75% reduction))
same,Relative Motility,L1 wild-type C. elegans; [6],0.220
CCN(CC)CCSc1nc2ccccc2n1Cc1ccccc1 [Compound 5685018],"Screen ""Hit""",L1 wild-type C. elegans; [5],Y (hits were identified as compounds that reduced relative motility below 0.25 (75% reduction))
same,Relative Motility,L1 wild-type C. elegans; [6],0.220
Nc1ccc(Oc2ccc(-c3nc4ccccc4[nH]3)cc2)cc1 [Compound 5747231],"Screen ""Hit""",L1 wild-type C. elegans; [8],Y (hits were identified as compounds that reduced relative motility below 0.25 (75% reduction))
same,Relative Motility,L1 wild-type C. elegans; [9],0.130
CC(C)CCSc1nc2ccccc2[nH]1 [Compound 5867913],"Screen ""Hit""",L1 wild-type C. elegans; [7],Y (hits were identified as compounds that reduced relative motility below 0.25 (75% reduction))
same,Relative Motility,L1 wild-type C. elegans; [6],0.150
COC(=O)c1ccc(OCC(O)Cn2c(C)nc3ccccc32)cc1 (stereo not shown) [Compound 5929389],Hit,L1 wild-type C. elegans; [10],non
CCn1c(/C=C/c2ccccc2)nc2ccccc21 [Compound 5958035],"Screen ""Hit""",L1 wild-type C. elegans; [5],Y (hits were identified as compounds that reduced relative motility below 0.25 (75% reduction))
same,Relative Motility,L1 wild-type C. elegans; [6],0.160
CCCc1nc2ccccc2n1Cc1ccc(C)cc1 [Compound 6607958],"Screen ""Hit""",L1 wild-type C. elegans; [5],Y (hits were identified as compounds that reduced relative motility below 0.25 (75% reduction))
same,Relative Motility,L1 wild-type C. elegans; [6],0.120
N#Cc1ccc(CSc2nc3ccc(Br)cc3[nH]2)cc1 [Compound 6726033],"Screen ""Hit""",L1 wild-type C. elegans; [8],Y (hits were identified as compounds that reduced relative motility below 0.25 (75% reduction))
same,Relative Motility,L1 wild-type C. elegans; [9],0.140
C=CCn1c(/C=C/c2ccccc2OC)nc2ccccc21 [Compound 7121977],"Screen ""Hit""",L1 wild-type C. elegans; [5],Y (hits were identified as compounds that reduced relative motility below 0.25 (75% reduction))
same,Relative Motility,L1 wild-type C. elegans; [6],0.140
CCCOc1ccc(Cn2c(CO)nc3ccccc32)cc1 [Compound 7356999],Hit,L1 wild-type C. elegans; [10],non
C=CCn1c(NCc2ccccc2OC)nc2ccccc21 [Compound 7419109],"Screen ""Hit""",L1 wild-type C. elegans; [8],Y (hits were identified as compounds that reduced relative motility below 0.25 (75% reduction))
same,Relative Motility,L1 wild-type C. elegans; [9],0.078
CCn1c(NCc2cccc(Br)c2)nc2ccccc21 [Compound 7746308],"Screen ""Hit""",L1 wild-type C. elegans; [8],Y (hits were identified as compounds that reduced relative motility below 0.25 (75% reduction))
same,Relative Motility,L1 wild-type C. elegans; [9],0.200
Cc1ccc(C(C)C)cc1OCC(O)Cn1c(C)nc2ccccc21 (stereo not shown) [Compound 7748492],"Screen ""Hit""",L1 wild-type C. elegans; [8],Y (hits were identified as compounds that reduced relative motility below 0.25 (75% reduction))
same,Relative Motility,L1 wild-type C. elegans; [9],0.220
CCOc1ccc(CNc2nc3ccccc3n2CC)cc1 [Compound 7758171],"Screen ""Hit""",L1 wild-type C. elegans; [8],Y (hits were identified as compounds that reduced relative motility below 0.25 (75% reduction))
same,Relative Motility,L1 wild-type C. elegans; [9],0.180
Cn1c(NCc2cccc(Br)c2)nc2ccccc21 [Compound 7766492],"Screen ""Hit""",L1 wild-type C. elegans; [8],Y (hits were identified as compounds that reduced relative motility below 0.25 (75% reduction))
same,Relative Motility,L1 wild-type C. elegans; [9],0.130
"Cc1nn(C)c(Oc2ccccc2)c1C=NOCc1ccc(C(=O)OC(C)(C)C)cc1 [Fenpyroximate, reference compound]",IC50,[2],0.048 µM
same,IC50,"[1]; wild-type (N2) mitochondria, read-out: C. elegans Complex I IC50",0.021 µM
